# According to US20040077697A1, “2-Acylaminothiazole derivative or its salt” (priority 2001, published 2004):
# Columns and labels:
# human CD34+ cell = assay: Megakaryocyte colony formation promoting action; format: cell-based; settings: MegaCult-C, 10 to 14 days, colonies per well, average of three
# Procedure: <Megakaryocyte Colony Formation Promoting Action>
# A human CD34^+ cell was cultured at 37° C. for 10 to 14 days in the presence of a test compound in a 2-well chamber slide by using MegaCult™-C (produced by StemCell Technologies). According to the manufacturer's instructions, the slide was dehydrated, fixed, and then stained with an anti-glycoprotein IIb/IIIa antibody. A colony containing three or more of the glycoprotein IIb/IIIa positive megakaryocyte cells was defined as one colony, and the number of colonies per well was microscopically measured. The assay was replicated thrice, and an average value was evaluated as the number of megakaryocyte colonies.
melting point,SMILES,Number of megakaryocyte colonies (human CD34+ cell; test compound 0.3 μM),Number of megakaryocyte colonies (human CD34+ cell; test compound 1.0 μM),Number of megakaryocyte colonies (human CD34+ cell; test compound 3.0 μM)
263 to 266 °C,"COc1cc(C(=O)Nc2nc(-c3ccc(F)cc3)c(N3CCN(C4CCCCC4)CC3)s2)ccn1 [Example 2, N-[5-(4-cyclohexylpiperazin-1-yl)-4-(4-fluorophenyl)thiazol-2-yl]-2-methoxyi sonicotinamide]",5.2,19.0,34.8
169 to 172 °C,COc1cc(OC)cc(C(=O)Nc2nc(-c3ccccc3)c(N3CCOCC3)s2)c1.Cl,–,–,–
270 to 272 °C (dec.),Cl.O=C(Nc1nc(-c2ccc(F)cc2)c(N2CCN(C3CCCCC3)CC2)s1)c1ccc(O)c(Cl)c1,–,–,–
